From patent publication US9781930B2, “3′-substituted-abscisic acid derivatives” (Valent BioSciences Corporation, priority 2014, dated 2017)

Tested on: Arabidopsis thaliana seed
Assay: Seed germination inhibition assay for testing Examples 1-28 and 47-50
Type: in vivo
Parameters: key to Arabidopsis seed germination inhibition potency: + + + +: The other derivatives were scored by potency relative to S-ABA.; (S)-ABA potency = + + +.; + +: The other derivatives were scored by potency relative to S-ABA.; ++: The other derivatives were scored by potency relative to S-ABA.; +: The other derivatives were scored by potency relative to S-ABA.; −− = no effect
Settings: for Arabidopsis seed germination inhibition potency: 0.01-10.0 ppm in 96-well plates, scored on day 7, relative to (S)-ABA; for germination inhibition potency compared to (S)-ABA (in words): Arabidopsis seed germination
Experimental: Seed Germination Inhibition Assay for Testing Examples 1-28 and 47-50 To determine the germination inhibition potency of the (S)-ABA derivatives, germination assays were performed with the model plant Arabidopsis thaliana. Arabidopsis seed was sterilized by shaking for five minutes in 200-proof ethanol, and followed by shaking for five minutes in a 10% bleach solution. The seeds were then washed five times in sterile, distilled, de-ionized water and suspended in 0.1% phytoagar. The tubes containing the seeds were wrapped in aluminum foil and stratified at 4° C. for two days. All compounds were tested at eight concentrations of 0 (DMSO control), 0.01, 0.03, 0.1, 0.3, 1.0, 3.0, and 10.0 ppm in 96-well plates. Each plate contained eight replicates of each concentration of the test compound and eight replicates of (S)-ABA at 0.1 ppm as the positive control. As an additional set of controls, each run of the assay also contained one plate dosed with (S)-ABA covering a range of concentrations up to 10 ppm. For each compound, 10× stock solutions corresponding to each of the tested concentrations were prepared in distilled and de-ionized water containing 5% DMSO. The stock test solution (10 μL) was added to each well according to the scheme described above, and 90 μL of ½× Murashige and Skoog media containing 1.2% Bactoagar was then added to each well (final DMSO concentration was 0.5%). When the media solidified, ten to fifteen sterile stratified Arabidopsis seeds were distributed into each well using a repeat pipettor. The plates were sealed with surgical tape and placed in a growth chamber running diurnal cycles of 12 hours of light at 24° C. and 12 hours of darkness at 19° C. The plates were scanned on days 3 through 7, and scored on day 7. The 3′-substituted-(S)-ABA derivatives were scored on ability to inhibit germination relative to the potency of (S)-ABA. The results are summarized below in “Table 1: Arabidopsis seed germination inhibition activity of (S)-ABA derivatives.”

Compound | Arabidopsis seed germination inhibition potency | germination inhibition potency compared to (S)-ABA (in words)
CCC1=C(C)[C@](O)(/C=C/C(C)=C\C(=O)OC)C(C)(C)CC1=O [Example 1, (2Z,4E)-methyl 5-((S)-3-ethyl-1-hydroxy-2,6,6-trimethyl-4-oxocyclohex-2-en-1-yl)-3-methylpenta-2,4-dienoate] | + + + | just as effective as (S)-ABA
CCC1=C(C)[C@](O)(/C=C/C(C)=C\C(=O)O)C(C)(C)CC1=O [Example 2, (2Z,4E)-5-((S)-3-ethyl-1-hydroxy-2,6,6-trimethyl-4-oxocyclohex-2-en-1-yl)-3-methylpenta-2,4-dienoic acid] | + + + | just as effective as (S)-ABA
CCCC1=C(C)[C@](O)(/C=C/C(C)=C\C(=O)O)C(C)(C)CC1=O [Example 3, (2Z,4E)-5-((S)-1-hydroxy-2,6,6-trimethyl-4-oxo-3-propylcyclohex-2-en-1-yl)-3-methylpenta-2,4-dienoic acid] | + + | 
C=CCC1=C(C)[C@](O)(/C=C/C(C)=C\C(=O)O)C(C)(C)CC1=O [Example 4, (2Z,4E)-5-((S)-3-allyl-1-hydroxy-2,6,6-trimethyl-4-oxocyclohex-2-en-1-yl)-3-methylpenta-2,4-dienoic acid] | + + + | just as effective as (S)-ABA
C#CCC1=C(C)[C@](O)(/C=C/C(C)=C\C(=O)O)C(C)(C)CC1=O [Example 5, (2Z,4E)-5-((S)-1-hydroxy-2,6,6-trimethyl-4-oxo-3-(prop-2-yn-1-yl)cyclohex-2-en-1-yl)-3-methylpenta-2,4-dienoic acid] | + + + + | more potent than (S)-ABA
CCCCC1=C(C)[C@](O)(/C=C/C(C)=C\C(=O)O)C(C)(C)CC1=O [Example 6, (2Z,4E)-5-((S)-3-butyl-1-hydroxy-2,6,6-trimethyl-4-oxocyclohex-2-en-1-yl)-3-methylpenta-2,4-dienoic acid] | + | 
CC1=C(CCCCO)C(=O)CC(C)(C)[C@@]1(O)/C=C/C(C)=C\C(=O)O [Example 7, (2Z,4E)-5-((S)-1-hydroxy-3-(4-hydroxybutyl)-2,6,6-trimethyl-4-oxocyclohex-2-en-1-yl)-3-methylpenta-2,4-dienoic acid] | −− | 
CCCCCC1=C(C)[C@](O)(/C=C/C(C)=C\C(=O)O)C(C)(C)CC1=O [Example 8, (2Z,4E)-5-((S)-1-hydroxy-2,6,6-trimethyl-4-oxo-3-pentylcyclohex-2-en-1-yl)-3-methylpenta-2,4-dienoic acid] | −− | 
CC1=C(CC(=O)OC(C)(C)C)C(=O)CC(C)(C)[C@@]1(O)/C=C/C(C)=C\C(=O)O [Example 9, (2Z,4E)-5-((S)-3-(2-(tert-butoxy)-2-oxoethyl)-1-hydroxy-2,6,6-trimethyl-4-oxocyclohex-2-en-1-yl)-3-methylpenta-2,4-dienoic acid] | −− | 
CC1=C(CC(=O)O)C(=O)CC(C)(C)[C@@]1(O)/C=C/C(C)=C\C(=O)O [Example 10, (2Z,4E)-5-((S)-3-(carboxymethyl)-1-hydroxy-2,6,6-trimethyl-4-oxocyclohex-2-en-1-yl)-3-methylpenta-2,4-dienoic acid] | −− | 
CC1=C(CC#N)C(=O)CC(C)(C)[C@@]1(O)/C=C/C(C)=C\C(=O)O [Example 11, (2Z,4E)-5-((S)-3-(cyanomethyl)-1-hydroxy-2,6,6-trimethyl-4-oxocyclohex-2-en-1-yl)-3-methylpenta-2,4-dienoic acid] | ++ | 
CC1=C(CC(=O)N(C)C)C(=O)CC(C)(C)[C@@]1(O)/C=C/C(C)=C\C(=O)O [Example 12, (2Z,4E)-5-((S)-3-(2-(dimethylamino)-2-oxoethyl)-1-hydroxy-2,6,6-trimethyl-4-oxocyclohex-2-en-1-yl)-3-methylpenta-2,4-dienoic acid] | −− | 
CC1=C(Cc2ccccc2)C(=O)CC(C)(C)[C@@]1(O)/C=C/C(C)=C\C(=O)O [Example 13, (2Z,4E)-5-((S)-3-benzyl-1-hydroxy-2,6,6-trimethyl-4-oxocyclohex-2-en-1-yl)-3-methylpenta-2,4-dienoic acid] | −− | 
CC1=C(Cc2ccc3ccccc3c2)C(=O)CC(C)(C)[C@@]1(O)/C=C/C(C)=C\C(=O)O [Example 14, (2Z,4E)-5-((S)-1-hydroxy-2,6,6-trimethyl-3-(naphthalen-2-ylmethyl)-4-oxocyclohex-2-en-1-yl)-3-methylpenta-2,4-dienoic acid] | −− | 
CC1=C(Cc2cccc3ccccc23)C(=O)CC(C)(C)[C@@]1(O)/C=C/C(C)=C\C(=O)O [Example 15, (2Z,4E)-5-((S)-1-hydroxy-2,6,6-trimethyl-3-(naphthalen-1-ylmethyl)-4-oxocyclohex-2-en-1-yl)-3-methylpenta-2,4-dienoic acid] | −− | 
CC1=C(Cc2ccccc2C)C(=O)CC(C)(C)[C@@]1(O)/C=C/C(C)=C\C(=O)O [Example 16, (2Z,4E)-5-((S)-1-hydroxy-2,6,6-trimethyl-3-(2-methylbenzyl)-4-oxocyclohex-2-en-1-yl)-3-methylpenta-2,4-dienoic acid] | −− | 
CC1=C(Cc2cccc(C)c2)C(=O)CC(C)(C)[C@@]1(O)/C=C/C(C)=C\C(=O)O [Example 17, (2Z,4E)-5-((S)-1-hydroxy-2,6,6-trimethyl-3-(3-methylbenzyl)-4-oxocyclohex-2-en-1-yl)-3-methylpenta-2,4-dienoic acid] | −− | 
CC1=C(Cc2ccc(C)cc2)C(=O)CC(C)(C)[C@@]1(O)/C=C/C(C)=C\C(=O)O [Example 18, (2Z,4E)-5-((S)-1-hydroxy-2,6,6-trimethyl-3-(4-methylbenzyl)-4-oxocyclohex-2-en-1-yl)-3-methylpenta-2,4-dienoic acid] | −− | 
CC1=C(Cc2ccccc2F)C(=O)CC(C)(C)[C@@]1(O)/C=C/C(C)=C\C(=O)O [Example 19, (2Z,4E)-5-((S)-3-(2-fluorobenzyl)-1-hydroxy-2,6,6-trimethyl-4-oxocyclohex-2-en-1-yl)-3-methylpenta-2,4-dienoic acid] | −− | 
CC1=C(Cc2cccc(F)c2)C(=O)CC(C)(C)[C@@]1(O)/C=C/C(C)=C\C(=O)O [Example 20, (2Z,4E)-5-((S)-3-(3-fluorobenzyl)-1-hydroxy-2,6,6-trimethyl-4-oxocyclohex-2-en-1-yl)-3-methylpenta-2,4-dienoic acid] | −− | 
CC1=C(Cc2ccc(F)cc2)C(=O)CC(C)(C)[C@@]1(O)/C=C/C(C)=C\C(=O)O [Example 21, (2Z,4E)-5-((S)-3-(4-fluorobenzyl)-1-hydroxy-2,6,6-trimethyl-4-oxocyclohex-2-en-1-yl)-3-methylpenta-2,4-dienoic acid] | −− | 
CC1=C(Cc2ccc(F)c(F)c2)C(=O)CC(C)(C)[C@@]1(O)/C=C/C(C)=C\C(=O)O [Example 22, (2Z,4E)-5-((S)-3-(3,4-difluorobenzyl)-1-hydroxy-2,6,6-trimethyl-4-oxocyclohex-2-en-1-yl)-3-methylpenta-2,4-dienoic acid] | −− | 
CC1=C(Cc2cc(F)cc(F)c2)C(=O)CC(C)(C)[C@@]1(O)/C=C/C(C)=C\C(=O)O [Example 23, (2Z,4E)-5-((S)-3-(3,5-difluorobenzyl)-1-hydroxy-2,6,6-trimethyl-4-oxocyclohex-2-en-1-yl)-3-methylpenta-2,4-dienoic acid] | −− | 
CC1=C(Cc2ccccc2Cl)C(=O)CC(C)(C)[C@@]1(O)/C=C/C(C)=C\C(=O)O [Example 24, (2Z,4E)-5-((S)-3-(2-chlorobenzyl)-1-hydroxy-2,6,6-trimethyl-4-oxocyclohex-2-en-1-yl)-3-methylpenta-2,4-dienoic acid] | −− | 
CC1=C(Cc2ccc(Cl)cc2)C(=O)CC(C)(C)[C@@]1(O)/C=C/C(C)=C\C(=O)O [Example 25, (2Z,4E)-5-((S)-3-(4-chlorobenzyl)-1-hydroxy-2,6,6-trimethyl-4-oxocyclohex-2-en-1-yl)-3-methylpenta-2,4-dienoic acid] | −− | 
COc1cccc(CC2=C(C)[C@](O)(/C=C/C(C)=C\C(=O)O)C(C)(C)CC2=O)c1 [Example 26, (2Z,4E)-5-((S)-3-(3-methoxybenzyl)-1-hydroxy-2,6,6-trimethyl-4-oxocyclohex-2-en-1-yl)-3-methylpenta-2,4-dienoic acid] | −− | 
